Legend:
[1] = system: CCRF-CEM; assay: NCI DTP screen (SRB), Leukemia; type: cell-based; conditions: Homo sapiens
Protocol: (§8) After 24 h, two plates of each cell line are fixed in situ with TCA, to represent a measurement of the cell population for each cell line at the time of drug addition (Tz). Experimental drugs are solubilized in dimethyl sulfoxide at 400-fold the desired final maximum test concentration and stored frozen prior to use. […]
(§9) Following drug addition, the plates are incubated for an additional 48 h at 37° C., 5% CO2, 95% air, and 100% relative humidity. […] Bound stain is subsequently solubilized with 10 mM trizma base, and the absorbance is read on an automated plate reader at a wavelength of 515 nm. […] Using the seven absorbance measurements [time zero, (Tz), control growth, (C), and test growth in the presence of drug at the five concentration levels (Ti)], the percentage growth is calculated at each of the drug concentrations levels. Percentage growth inhibition is calculated as: [(Ti−Tz)/(C−Tz)]×100 for concentrations for which Ti>/=Tz [(Ti−Tz)/Tz]×100 for concentrations for which Ti<Tz […]

[2] = system: DU-145; assay: NCI DTP screen (SRB), Prostate Cancer; type: cell-based; conditions: Homo sapiens
Protocol: (§1) Screening of compounds 70 and 71 against several cancer cell lines The human tumor cell lines of the cancer screening panel are grown in RPMI 1640 medium containing 5% fetal bovine serum and 2 mM L-glutamine. For a typical screening experiment, cells are inoculated into 96 well microtiter plates in 100 μL at plating densities ranging from 5,000 to 40,000 cells/well depending on the doubling time of individual cell lines. After cell inoculation, the microtiter plates are incubated at 37° C., 5% CO2, 95% air and 100% relative humidity for 24 h prior to addition of experimental drugs.
(§2) After 24 h, two plates of each cell line are fixed in situ with TCA, to represent a measurement of the cell population for each cell line at the time of drug addition (Tz). Experimental drugs are solubilized in dimethyl sulfoxide at 400-fold the desired final maximum test concentration and stored frozen prior to use. At the time of drug addition, an aliquot of frozen concentrate is thawed and diluted to twice the desired final maximum test concentration with complete medium containing 50 μg/ml gentamicin. Additional four, 10-fold or ½ log serial dilutions are made to provide a total of five drug concentrations plus control. Aliquots of 100 μl of these different drug dilutions are added to the appropriate microtiter wells already containing 100 μl of medium, resulting in the required final drug concentrations.
(§3) Following drug addition, the plates are incubated for an additional 48 h at 37° C., 5% CO2, 95% air, and 100% relative humidity. For adherent cells, the assay is terminated by the addition of cold TCA. Cells are fixed in situ by the gentle addition of 50 μl of cold 50% (w/v) TCA (final concentration, 10% TCA) and incubated for 60 minutes at 4° C. […] Bound stain is subsequently solubilized with 10 mM trizma base, and the absorbance is read on an automated plate reader at a wavelength of 515 nm. […] Using the seven absorbance measurements [time zero, (Tz), control growth, (C), and test growth in the presence of drug at the five concentration levels (Ti)], the percentage growth is calculated at each of the drug concentrations levels. Percentage growth inhibition is calculated as: [(Ti−Tz)/(C−Tz)]×100 for concentrations for which Ti>/=Tz [(Ti−Tz)/Tz]×100 for concentrations for which Ti<Tz
(§4) Three dose response parameters are calculated for each experimental agent. […] The drug concentration resulting in total growth inhibition (TGI) is calculated from Ti=Tz. […] Values are calculated for each of these three parameters if the level of activity is reached; however, if the effect is not reached or is exceeded, the value for that parameter is expressed as greater or less than the maximum or minimum concentration tested.

[3] = system: PC-3; assay: NCI DTP screen (SRB), Prostate Cancer; type: cell-based; conditions: Homo sapiens
Protocol: as §1, §2, §3, §4

[4] = system: HT29; assay: NCI DTP screen (SRB), Colon Cancer; type: cell-based; conditions: Homo sapiens, HT-29
Protocol: as §8, §9

[5] = system: NCI-H226; assay: NCI DTP screen (SRB), Non-Small Cell Lung Cancer; type: cell-based; conditions: Homo sapiens
Protocol: as §1, §2
(§5) Following drug addition, the plates are incubated for an additional 48 h at 37° C., 5% CO2, 95% air, and 100% relative humidity. For adherent cells, the assay is terminated by the addition of cold TCA. Cells are fixed in situ by the gentle addition of 50 μl of cold 50% (w/v) TCA (final concentration, 10% TCA) and incubated for 60 minutes at 4° C. The supernatant is discarded, and the plates are washed five times with tap water and air dried. Sulforhodamine B (SRB) solution (100 μl) at 0.4% (w/v) in 1% acetic acid is added to each well, and plates are incubated for 10 minutes at room temperature. After staining, unbound dye is removed by washing five times with 1% acetic acid and the plates are air dried. Bound stain is subsequently solubilized with 10 mM trizma base, and the absorbance is read on an automated plate reader at a wavelength of 515 nm. For suspension cells, the methodology is the same except that the assay is terminated by fixing settled cells at the bottom of the wells by gently adding 50 μl of 80% TCA (final concentration, 16% TCA). Using the seven absorbance measurements [time zero, (Tz), control growth, (C), and test growth in the presence of drug at the five concentration levels (Ti)], the percentage growth is calculated at each of the drug concentrations levels. Percentage growth inhibition is calculated as: [(Ti−Tz)/(C−Tz)]×100 for concentrations for which Ti>/=Tz [(Ti−Tz)/Tz]×100 for concentrations for which Ti<Tz
as §4

[6] = system: NCI-H322M; assay: NCI DTP screen (SRB), Non-Small Cell Lung Cancer; type: cell-based; conditions: NCI-H322M
Protocol: as §1, §2, §5, §4

[7] = system: A549/ATCC; assay: NCI DTP screen (SRB), Non-Small Cell Lung Cancer; type: cell-based; conditions: Homo sapiens
Protocol: as §1, §2, §5, §4

[8] = system: HOP-62; assay: NCI DTP screen (SRB), Non-Small Cell Lung Cancer; type: cell-based; conditions: Homo sapiens
Protocol: as §1, §2, §5, §4

[9] = system: NCI-H460; assay: NCI DTP screen (SRB), Non-Small Cell Lung Cancer; type: cell-based
Protocol: as §1, §2, §5, §4

[10] = system: EKVX; assay: NCI DTP screen (SRB), Non-Small Cell Lung Cancer; type: cell-based; conditions: Homo sapiens
Protocol: as §1, §2, §5, §4

[11] = system: NCI-H23; assay: NCI DTP screen (SRB), Non-Small Cell Lung Cancer; type: cell-based; conditions: Homo sapiens
Protocol: as §1, §2, §5, §4

[12] = Preliminary animal studies, daily oral administration; conditions: data not shown
[13] = molecular target: T1, recombinant PDK-1 (Homo sapiens, UniProt O15530); assay: PDK-1 kinase activity (Upstate kit, SGK-coupled, cell-free); type: biochemical
T1 construct: purchased Upstate (Lake Placid, N.Y.)
T1 sequence (O15530 1-556): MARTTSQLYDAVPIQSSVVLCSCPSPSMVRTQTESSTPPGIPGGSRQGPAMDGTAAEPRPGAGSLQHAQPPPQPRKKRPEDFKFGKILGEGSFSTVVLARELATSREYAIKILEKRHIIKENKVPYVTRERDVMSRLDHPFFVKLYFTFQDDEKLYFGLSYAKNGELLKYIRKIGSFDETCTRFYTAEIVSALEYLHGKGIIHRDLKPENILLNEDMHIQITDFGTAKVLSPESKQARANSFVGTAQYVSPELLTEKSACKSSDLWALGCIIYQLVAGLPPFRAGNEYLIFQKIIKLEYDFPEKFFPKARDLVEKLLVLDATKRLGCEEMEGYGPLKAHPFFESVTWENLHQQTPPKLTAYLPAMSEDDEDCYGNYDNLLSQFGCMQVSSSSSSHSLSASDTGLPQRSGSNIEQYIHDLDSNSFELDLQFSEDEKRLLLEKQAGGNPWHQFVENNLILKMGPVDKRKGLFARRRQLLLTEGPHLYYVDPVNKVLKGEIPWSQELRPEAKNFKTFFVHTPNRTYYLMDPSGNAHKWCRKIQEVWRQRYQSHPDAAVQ
Protocol: PDK-1 kinase activity This in vitro assay was performed using a PDK-1 kinase assay kit (Upstate, Lake Placid, N.Y.) according to the vendor's instructions. This cell-free assay is based on the ability of recombinant PDK-1, in the presence of DMSO vehicle or the test agent, to activate its downstream kinase serum- and glucocorticoid-regulated kinase (SGK.) which, in turn, phosphorylates the Akt/SGK-specific peptide substrate RPRAATF with [γ-^32]-ATP. […] The reported values represent the means of two independent determinations.

[14] = system: U251; assay: NCI DTP screen (SRB), CNS Cancer; type: cell-based, human; conditions: Homo sapiens, U-251
Protocol: (§6) Screening of compounds 70 and 71 against several cancer cell lines The human tumor cell lines of the cancer screening panel are grown in RPMI 1640 medium containing 5% fetal bovine serum and 2 mM L-glutamine. For a typical screening experiment, cells are inoculated into 96 well microtiter plates in 100 μL at plating densities ranging from 5,000 to 40,000 cells/well depending on the doubling time of individual cell lines. After cell inoculation, the microtiter plates are incubated at 37° C., 5% CO2, 95% air and 100% relative humidity for 24 h prior to addition of experimental drugs. […]
as §3, with “humidity.” for “humidity. For adherent cells, the assay is terminated by the addition of cold TCA. Cells are fixed in situ by the gentle addition of 50 μl of cold 50% (w/v) TCA (final concentration, 10% TCA) and incubated for 60 minutes at 4° C.”
(§7) Three dose response parameters are calculated for each experimental agent. […]

[15] = system: SW-620; assay: NCI DTP screen (SRB), Colon Cancer; type: cell-based; conditions: Homo sapiens
Protocol: as §1, §2, §5, §4

[16] = system: NCI-H522; assay: NCI DTP screen (SRB), Non-Small Cell Lung Cancer; type: cell-based, human
Protocol: as §6
as §3, with “humidity.” for “humidity. For adherent cells, the assay is terminated by the addition of cold TCA. Cells are fixed in situ by the gentle addition of 50 μl of cold 50% (w/v) TCA (final concentration, 10% TCA) and incubated for 60 minutes at 4° C.”
as §7

Work on `NCC(=O)Nc1ccc(-n2nc(C(F)(F)F)cc2-c2ccc3c(ccc4ccccc43)c2)cc1` [Compound 70, 2-Amino-N-{4-[5-(2-phenanthrenyl)-3-(trifluoromethyl)-1H-pyrazol-1-yl]-phenyl}-acetamide] yielded a GI50 [1] of 0.387 µM, a CC50 ([1]; read-out: LC50) greater than 100 µM and a GI50 ([2]; DU-145) of 1.73 µM. For the same compound, the CC50 ([2]; DU-145, read-out: LC50) was 6.95 µM, the GI50 ([3]; PC-3) was 0.705 µM and the CC50 ([3]; PC-3, read-out: LC50) was 6.02 µM. The GI50 [4] was 0.858 µM, the GI50 [5] was 1.2 µM and the CC50 ([6]; Homo sapiens, read-out: LC50) was 5.4 µM. For the same compound, the “Mean Optical Densities” value ([6]; Log10 Concentration −5.0) was 1.100, the “Percent Growth” value ([6]; Log10 Concentration −8.0) was 60% and the GI50 [7] was 1.02 µM. For the same compound, the GI50 ([8]; HOP-62) was 1.27 µM, the CC50 ([8]; HOP-62, read-out: LC50) was 7.13 µM and the GI50 ([9]; Homo sapiens, NCI-H460) was 0.421 µM. For the same compound, the CC50 ([9]; Homo sapiens, NCI-H460, read-out: LC50) was greater than 100 µM, the “Percent Growth” value ([9]; NCI-H460, Log10 Concentration −5.0) was −66% and the “Mean Optical Densities” value ([9]; NCI-H460, Log10 Concentration −6.0) was 1.830. The GI50 [10] was 1.49 µM, the GI50 ([11]; NCI-H23) was 1.3 µM and the CC50 ([11]; NCI-H23, read-out: LC50) was 6.33 µM. For the same compound, the “toxicity to the animals” value ([12]; daily oral administration for one month) was “little toxicity”, the oral absorption ([12]; preliminary animal studies) was “can be orally absorbed” and the IC50 ([13]; inhibiting recombinant PDK-1 kinase activity, read-out: IC50 PDK-1) was 5 µM. The “increase in PDK-1 inhibition potency over compound 59” value ([13]; ratio of IC50 values) was “two-”, the GI50 [14] was 0.775 µM and the GI50 ([15]; SW-620) was 1.12 µM. For the same compound, the CC50 ([15]; SW-620, read-out: LC50) was greater than 100 µM, the GI50 ([16]; Homo sapiens) was 1.95 µM and the “Mean Optical Densities” value ([16]; Log10 Concentration −4.0) was 0.486.

From patent US20060079566A1, “PDK-1/Akt signaling inhibitors” (priority 2003, published 2006)
